Data reported in patent publication US9605013B2, “Derivatives of hemin with antibacterial and antiviral activity” (OBSCHESTVO S OGRANICHENNOI OTVETSTVENNOSTIYU …, priority 2011, dated 2017).
Marks after values point to notes of the source that are not given here.

Assays:
[1] = test system: Staphylococcus aureus No. 3797 (MRSA); assay: Antibacterial specific activity, twofold dilutions, visual growth evaluation; assay type: cell-based; conditions: St. aur No. 3797 MRSA; 36° C., 24 hours
Procedure: (§1) The specific activity of compounds also was determined against bacteria strains such as Staphylococcus aureus No. 25923 ATCC (American Type Culture Collection); Staphylococcus aureus No. 100 KC; Staphylococcus epidermidis No. 533; Enterococcus faecalis No. 559; Enterococcus faecium No. 569, Staphylococcus aureus No. 5 (MRSA), Staphylococcus aureus No. 3797 (MRSA). Staphylococcus aureus was cultured on the Trypticase Soy Agar (BBL) commercially available dry medium. Enterococcus faecalis was cultured on the Columbia Agar (BBL) commercially available dry medium. These media were sterilized by autoclaving at 121° C. for 15 min. Bacterial inoculum was constant and was 5×10^5 CFU/ml (10^5 CFU/0.2 ml). For water-soluble compounds, wells from 2nd through 8th were added with the solvent (water) in an amount of 15 μL per well, then the 1st well was added with 30 μL of the stock solution of the tested compound in […] with a concentration of […], and the concentration was adjusted to 0.007×10^3 M by serial twofold dilutions. A 10-μL portion was taken from every well, and 190 μL of the bacterial culture (10^5 CFU) was added per well. For DMSO-soluble compounds, wells from 2nd through 8th were added with the solvent (DMSO) in an amount of 10 μL per well, then the 1st well was added with 20 μL of the stock solution of the tested compound in […] with a concentration of […], and the concentration was adjusted to 0.039×10^3 M by serial twofold dilutions. A 2-μL portion was taken from each well, and 198 μL of the bacterial culture (10^5 CFU) was added per well.
(§2) The control comprised wells free of tested compounds (culture growth control). In addition, purity control of nutritional media and solvents was used. Plates were incubated in a thermostat at 36° C. for 24 hours.
(§3) Culture growth was evaluated visually by comparison of how microorganisms grew in the presence of tested compounds and in the absence of them. MIC was set equal to the last dilution of a tested agent which suppressed bacterial culture growth.

[2] = test system: Enterococcus faecalis No. 559; assay: as above; assay type: cell-based; conditions: E. faecalis 559; 36° C., 24 hours
Procedure: as §1, §2, §3

[3] = test system: Staphylococcus epidermidis No. 533; assay: as above; assay type: cell-based; conditions: S. epidermis 533; 36° C., 24 hours
Procedure: as §1, §2, §3

[4] = test system: Staphylococcus aureus No. 25923 ATCC; assay: as above; assay type: cell-based; conditions: S. aureus 25923; 36° C., 24 hours
Procedure: as §1, §2, §3

[5] = test system: Vancomycin-resistant Enterococcus faecium 569; assay: as above; assay type: cell-based; conditions: Vancomycin-resistant E. faecium 569; 36° C., 24 hours
Procedure: as §1, §2, §3

[6] = test system: Staphylococcus aureus No. 100 KC; assay: as above; assay type: cell-based; conditions: S. aureus 100 KC; 36° C., 24 hours
Procedure: as §1, §2, §3

[7] = test system: Staphylococcus aureus No. 5 (MRSA); assay: as above; assay type: cell-based; conditions: St. aur No. 5 MRSA; 36° C., 24 hours
Procedure: as §1, §2, §3

Escherichia coli 4300 = assay: as above; assay type: cell-based; conditions: E. coli 4300; 36° C., 24 hours
Procedure: [Worded in the source for another organism; this organism is reported under the same test.] as §1, §2, §3

[8] = test system: Micrococcus luteus BKM Ac-2230; assay: Antibacterial activity, serial dilutions in liquid MH medium; assay type: cell-based; conditions: for MIC: MH medium, 20 h, 37° C., 100% growth inhibition; for MBC: no colonies on agarized MH medium
Procedure: (§4) The antibacterial activity of the compounds was determined against strains of gram-positive bacteria such as Staphylococcus aureus 209P, Enterococcus faecalis BKM B-871, Micrococcus luteus BKM Ac-2230, Bacillus subtilis BKM B-501, and gram-negative bacteria such as Pseudomonas aeruginosa PAO1 and Escherichia coli KM MGU C-600. BKM strains were acquired from the All-Russia Collection of Microorganisms at the Institute for Biochemistry and Physiology of Microorganisms, Russian Academy of Sciences. Strain Staphylococcus aureus 209P was acquired from the Collection of Microorganisms at the Department of microbiology of the Faculty of Biology of Lomonosov Moscow State University, and Pseudomonas aeruginosa PAO1 was acquired from the Collection of Microorganisms at the Institute of Bioorganic Chemistry of the Russian Academy of Sciences.
(§5) The main parameters characterizing the antibacterial activity are the minimal inhibitory concentration (MIC) and minimal bactericidal concentration (MBC). […] MBC is the least concentration that causes the death of all cells.
(§6) MIC was quantified by inhibiting culture growth in a liquid medium with serial dilutions of compounds using a modified procedure [Amsterdam, D., 1966. “Susceptibility testing of antimicrobials in liquid media,” pp. 52-111. In Loman, V., ed. Antibiotics in laboratory medicine, 4th ed. Williams and Wilkins, Baltimore].
(§7) Bacteria were cultured and tested on an MH liquid medium (Mueller-Hinton medium: a dry extract of beef broth, 4 g/L; starch, 1.5 g/L; casein hydrolyzate, 17.5 g/L; Sigma-Fluka Catalog No. 70192) at 37° C., 100% humidity, and under stirring. Cultures (within 4 to 7 passages after thawing) in the exponential growth phase were used for tests.
(§8) All tested compounds absorb light at 595 nm, a wavelength used for evaluating bacterial culture growth. Therefore, a correction for absorption was applied in estimating the optical density of bacterial suspensions for each compound with account for its concentration in the well. Bacterial growth inhibition (GI) as percentage after 20 hours of incubating cells with compounds was derived from the optical density (A) measured in every well at a wavelength of 595 nm using the equation: GIi=[(Act−Ac0)−(Ait−Ai0)]×100/(Act−Ac0), (1) wherein the subscripts have the following meanings: i denotes the well number, c denotes a control well with bacteria whereto the tested compound is not inserted, 0 refers to the measurement taken immediately once the tested compound was inserted to the well, and t refers to the measurement taken 20 hours after the compound was inserted.
(§9) The protocol for the determination of experimental antibacterial activity of the tested compounds was as follows. A cryovial with the test strain culture in a medium with 7% DMSO stored in liquid nitrogen, was rapidly defrosted, and 1.5 mL of the fresh MH medium was inoculated with 100 μL of the cell suspension. Cells were grown for one day at 37° C. and stirred on an orbital shaker at 150 rpm. The morphologic features of the strain and the absence of contamination with foreign bacteria were verified by: (a) inoculation on an agarized (15 g/L agar) MH medium and observation of the shape and color of the grown colonies and (b) examination of characteristic morphologic features under a microscope (Mikmed-2, LOMO, Russia) equipped with a 40× objective lens. Further, the bacteria were cultured in 1 mL of the liquid MH medium at 37° C. under stirring. The cells were reseeded every day. Cell cultures were used in tests starting with 3rd reseeding and ending with 6th one.
(§10) For testing, 5 μL of a bacterial suspension in the stationary growth phase was transferred to 1 mL of a sterile MH medium and incubated until the exponential growth phase was attained (3 to 5 h, 37° C., stirring at 150 rpm). To estimate the microorganism concentration, the optical density (A) of the resulting bacterial culture was measured at a wavelength of 595 nm. […]

[9] = test system: Staphylococcus aureus 209P; assay: as above; assay type: cell-based; conditions: for MIC: MH medium, 20 h, 37° C., 100% growth inhibition; for MBC: no colonies on agarized MH medium
Procedure: as §4, §5, §6, §7, §8, §9, §10

[10] = test system: Bacillus subtilis BKM B-501; assay: as above; assay type: cell-based; conditions: for MIC: MH medium, 20 h, 37° C., 100% growth inhibition; for MBC: no colonies on agarized MH medium
Procedure: as §4, §5, §6, §7, §8, §9, §10

[11] = test system: Enterococcus faecalis BKM B-871; assay: Antibacterial activity, serial dilutions in liquid MH medium; assay type: cell-based; conditions: for MIC: MH medium, 20 h, 37° C., 100% growth inhibition; for MBC: no colonies on agarized MH medium
Procedure: as §4, §5, §6, §7, §8, §9, §10

Row | Compound | MIC [1] [µM] | MIC [2] [µM] | MIC [3] [µM] | MIC [4] [µM] | MIC [5] [µM] | MIC [6] [µM] | MIC [7] [µM] | MIC (Escherichia coli 4300) [µM] | MIC [8] [µM] | MBC [8] [µM] | MIC [9] [µM] | MIC [10] [µM] | MBC [10] | water solubility (Water solubility) | MBC [9] | MIC [11] [µM] | MBC [11]
1 | 6,7-bis-(N^α-Glycyl]-Protohemin (IX) [VII] | 6.25 | >50.0 | 6.25 | 2.6 | >50.0 | 12.5 | 6.25 | >50.0 | 12.5 | 25 | 50 | 25 | 25 µM | – | – | – | –
2 | 6,7-bis-[(Methyl Ester N^α-L-Seryl)-L-Arginyl]-Protohemin (IX) [XIX] | 1.3 | 1.3 | 1.3 | 0.65 | 6.25 | 0.78 | 1.56 | >50.0 | – | – | – | – | – | – | – | – | –
3 | 6,7-bis-[(N^α-L-Arginyl)-L-Seryl]-Protohemin (IX) [XXIV] | 25 | >50.0 | 2.60 | >50.0 | 6.25 | 5.20 | 25 | >50.0 | – | – | – | – | – | – | – | – | –
4 | 6,7-bis-[(N^α-L-Seryl)-L-Arginyl]-Protohemin (IX) [XXII] | 20.8 | >50.0 | 1.3 | 1.3 | 5.2 | 0.39 | 25 | >50.0 | – | – | – | – | – | – | – | – | –
5 | C=CC1=C(C)c2cc3[n-]c(cc4[n-]c(cc5nc(cc1n2)C(C)=C5C=C)c(C)c4CCC(=O)N[C@@H](CCC(=O)NCCO)C(=O)NCCO)c(CCC(=O)N[C@@H](CCC(=O)NCCO)C(=O)NCCO)c3C.[Cl-].[Fe+3] [XI, 6,7-bis-[(Di-2-hydroxyethylamide)-L-glutamyl]-Protohemin (IX)] | 12.5 | 33.3 | 6.25 | 0.39 | >50.0 | >50.0 | 12.5 | >50.0 | – | – | – | – | – | water-insoluble | – | – | –
6 | C=CC1=C(C)C2=Cc3c(C=C)c(C)c4[n]3[Fe]([Cl])[n]3c(c(C)c(CCC(=O)N[C@@H](CCCNC(=N)N)C(=O)OC)c3=CC3=NC(=C4)C(C)=C3CCC(=O)N[C@@H](CCCNC(=N)N)C(=O)OC)=CC1=N2 [XV, reference compound] | – | 25 | 25 | 25 | >50 | 50 | – | >50 | 1.6 | 3.2 | 50 | 3.1 | 3.1 µM | – | 200 µM | 50 | 400 µM
7 | C=CC1=C(C)C2=Cc3c(C=C)c(C)c4[n]3[Fe]([Cl])[n]3c(c(C)c(CCC(=O)N[C@@H](CCC(=O)N[C@@H](CCCNC(=N)N)C(=O)OC)C(=O)N[C@@H](CCCNC(=N)N)C(=O)OC)c3=CC3=NC(=C4)C(C)=C3CCC(=O)N[C@@H](CCC(=O)N[C@@H](CCCNC(=N)N)C(=O)OC)C(=O)N[C@@H](CCCNC(=N)N)C(=O)OC)=CC1=N2 [XVI, reference compound] | – | – | – | – | – | – | – | – | 3.1 | 12.5 | 6.3 | 1.6 | >200** μM | – | >200** μM | 12.5 | >200** μM
8 | C=CC1=C(C)C2=Cc3c(C=C)c(C)c4[n]3[Fe]([Cl])[n]3c(c(C)c(CCC(=O)NCC(=O)OC)c3=CC3=NC(=C4)C(C)=C3CCC(=O)NCC(=O)OC)=CC1=N2 [XVII, reference compound] | – | 25 | 25 | 25 | >50 | >50 | – | >50 | 1.6 | 6.5 | 50 | 12.5 | 25 µM | – | 50 µM | 100 | >200** μM
9 | C=CC1=C(C)C2=Cc3c(C=C)c(C)c4[n]3[Fe]([Cl])[n]3c(c(C)c(CCC(=O)N[C@@H](CO)C(=O)OC)c3=CC3=NC(=C4)C(C)=C3CCC(=O)N[C@@H](CO)C(=O)OC)=CC1=N2 [XVIII, reference compound] | – | – | – | – | – | – | – | – | 6.3 | 12.5 | 25 | 6.3 | 9 µM | – | 200 µM | 12.5 | 25 µM
